# According to US20250177530A1, “MOLECULES THAT BIND TO ENPP1 POLYPEPTIDES” (UNIVERSITY OF PITTSBURGH - OF THE COMMONWEALTH SYSTEM OF …, priority 2022, published 2025):
# Non-standard residues stand in square brackets, D forms with d. Residues, ends and D or L forms follow the SMILES beside them. *: point of attachment. Dolaproine = CO[C@@H]([C@@H]1CCCN1)[C@@H](C)C(=O)O; Dil = CC[C@H](C)[C@H](NC)[C@@H](CC(=O)O)OC; X1 = C[C@@H](N*)[C@@H](O)c1ccccc1; NMeV = CN[C@H](C(=O)O)C(C)C
# Columns and labels:
# Assay in all cases: ADC cytotoxicity (Cell Titer-Glo cell viability)
# Format in all cases: cell-based
# 293T-ENPP1 cells = tested on: 293T-ENPP1 cells
# Experimental: (§1) The cell-killing activity of anti-ENPP1 CAR^+ T cells and BiTEs were measured by LDH-Glo cytotoxicity assay kit (Promega, Madison, WI, USA). For the cell-killing activity of anti-ENPP1 CAR^+ T cells, control T cells or CAR^+ T cells as effector cells were incubated with 293T, 293T-ENPP1, and HepG2 target cells (5×10^3 cells/well in 96-well plate) separately at indicated E:T ratio for 24 hours at 37° C. For the cell-killing activity of BiTEs, target cells (1×10^4 cells/well) were mixed with serially diluted BiTEs in 50 μL of growth medium, and […] activated T cells were added at the ET ratio 10:1 and cultured for 24 hours at 37° C. in 5% CO2 humidified atmosphere. Controls for the calculation of percentage cytotoxicity were performed according to the manufacturer's instructions. The calculation of relative % cytotoxicity as follows: relative % cytotoxicity=100×(Experimental LDH release-medium background)/(target and effector maximum LDH release control-medium background). For the cell-killing activity of ADC, 293T, 293T-ENPP1, and HepG2 cells were seeded at 2000 cells/well in 96-well white plate and incubated overnight at 37° C. in 5% CO2. Serial diluted anti-ENPP1 ADC was added and cultured for 4 days at 37° C. in 5% CO2. Images were captured under a 4×objective microscope (Olympus microscope, Westborough, MA, USA). Controls with cells only were used for calculation of percent relative cell viability. At the end of the time point, the Cell Titer-Glo Luminescent cell viability assay kit (Promega) was used to measure the cell viability. The calculation of % Relative cell viability was as follows: % Relative cell viability=100×(Experimental luminescence values-medium Background)/(Control luminescence values-medium Background). For ADCC, the ADCC reporter bioassay complete kit (Promega) was used, the experiment was performed following the manufacturer's instructions. The 293T-ENPP1 cell line was used as target cell.
# HepG2 cells = conditions: 200 nM
# Experimental: as §1
# 293T cells = tested on: 293T cells
# Experimental: as §1
smiles,measurement,setting,value
"CC[C@H](C)[C@@H]([C@@H](CC(=O)N1CCC[C@H]1[C@H](OC)[C@@H](C)C(=O)N[C@H](C)[C@@H](O)c1ccccc1)OC)N(C)C(=O)[C@@H](NC(=O)[C@@H](NC)C(C)C)C(C)C [MMAE, monomethyl auristatin E, reference compound] (H-[NMeV]V[Dil][Dolaproine]-X1)",killing at 200 nM,293T-ENPP1 cells,non-specific killing
same,killing effects of free MMAE and ADC compared,HepG2 cells,comparable
same,killing at 200 nM,293T cells; 200 nM,non-specific killing
same,killing at lower concentrations,293T cells; concentrations below 200 nM,no non-specific killing
